# Reference: patent US20240051930A1, “HETEROAROMATIC SPERMIDINE ANALOGUES AND THEIR ANTICANCER ACTIVITY” (FLORATEK PHARMA S.A., priority 2021, published 2024)
# Assays:
# Format in all cases: cell-based
# K562 cells = assay: CellTiter-Glow cell viability, leukemia K562; conditions: Homo sapiens, 72 h, read-out: % Inh @2 μM K562
# Description: (§1) Antitumor activity of the compounds and cisplatin as a positive control was assessed by using CellTiter-Glow® Luminescent Cell Viability assay (Promega #G7572) according to the manufacturer's instructions. The compounds were tested at 2 concentrations, 2 and 20 μM, in triplicate well conditions.
# (§2) Tumor cells were grown at 37° C. in a humidified atmosphere with 5% CO2 in RPMI 1640 or DMEM medium, supplemented with 10% (v/v) fetal calf serum and 50 μg/ml gentamicin for up to 20 passages, and were passaged once or twice weekly. Cells were harvested using TrypLE or PBS buffer containing 1 mM EDTA, and the percentage of viable cells is determined using a cell counter.
# (§3) Cells were harvested from exponential phase cultures, counted and plated in 96 well flat-bottom microtiter plates at a cell density depending on the cell line's growth rate (4,000-20,000 cells/well depending on the cell line's growth rate, up to 60,000 for hematological cancer cell lines) in RPMI 1640 or DMEM medium supplemented with 10% (v/v) fetal calf serum and 50 μg/ml gentamicin (140 μl/well). […]
# (§4) Compounds were serially diluted in DMSO, transferred in cell culture medium, and added to the assay plates. […] Viability of cells was quantified by CellTiter-Glow® Luminescent Cell Viability assay (Promega). Luminescence was measured with the microplate luminometer (EnVision Multi Label Reader).
# DMS114 cells = assay: CellTiter-Glow cell viability, lung carcinoma DMS114; conditions: Homo sapiens, DMS-114, 72 h, read-out: growth inhibition of lung carcinoma cells DMS114
# Description: as §1, §2, §3, §4
# H118MG cells = assay: CellTiter-Glow cell viability, brain carcinoma cells H118MG; conditions: 72 h, read-out: growth inhibition of brain carcinoma cells H118MG
# Description: as §1, §2, §3, §4
# A673 cells = assay: CellTiter-Glow cell viability, Ewings sarcoma A673; conditions: Homo sapiens, 72 h, read-out: % Inh @2 μM A673
# Description: as §1, §2
# (§5) Cells were harvested from exponential phase cultures, counted and plated in 96 well flat-bottom microtiter plates at a cell density depending on the cell line's growth rate (4,000-20,000 cells/well depending on the cell line's growth rate, up to 60,000 for hematological cancer cell lines) in RPMI 1640 or DMEM medium supplemented with 10% (v/v) fetal calf serum and 50 μg/ml gentamicin (140 μl/well). Cultures were incubated at 37° C. and 5% CO2 in a humidified atmosphere. After 24 h, 10 μl of test compounds or control medium are added and left on the cells for another 72 h.
# (§6) Compounds were serially diluted in DMSO, transferred in cell culture medium, and added to the assay plates. The DMSO concentration was kept constant at <0.2% v/v across the assay plate. Viability of cells was quantified by CellTiter-Glow® Luminescent Cell Viability assay (Promega). Luminescence was measured with the microplate luminometer (EnVision Multi Label Reader).
# A2058 cells = assay: CellTiter-Glow cell viability, melanoma A2058; conditions: for inhibition at 2 µM: Homo sapiens, A2058, 72 h, read-out: % Inh @2 μM A2058
# Description: as §1, §2, §5, §6
# SK-Mel-5 cell line = assay: CellTiter-Glow cell viability, melanoma SK-Mel-5; conditions: for inhibition at 2 µM: Homo sapiens, SK-MEL-5, 72 h, read-out: % Inh @2 μM SK-Mel-5
# Description: as §1, §2, §5, §6
# NCI-H292 cells = assay: CellTiter-Glow cell viability, lung carcinoma NCI-H292; conditions: Homo sapiens, 72 h, read-out: % Inh @2 μM NCI-H292
# Description: as §1, §2, §5, §6
# HCT116 cells = assay: CellTiter-Glow cell viability, colon carcinoma HCT116; conditions: Homo sapiens, HCT-116, 72 h, read-out: % Inh @2 μM HCT116
# Description: as §1, §2, §3, §4
# NAWALMA cells = assay: CellTiter-Glow cell viability, lymphoma NAWALMA; conditions: 72 h, read-out: % Inh @2 μM NAWALMA
# Description: as §1, §2, §5, §6
# SK-N-SH cells = assay: CellTiter-Glow cell viability, brain carcinoma SK-N-SH; conditions: Homo sapiens, 72 h, read-out: % Inh @2 μM SK-N-SH
# Description: as §1, §2, §5, §6
# A375 cells = assay: CellTiter-Glow cell viability, melanoma A375; conditions: for inhibition at 2 µM: Homo sapiens, A-375, 72 h, read-out: % Inh @2 μM A375
# Description: as §1, §2, §5, §6
# Daudi cells = assay: CellTiter-Glow cell viability, lymphoma Daudi; conditions: Homo sapiens, 72 h, read-out: % Inh @2 μM Daudi
# Description: as §1, §2, §5, §6
# MeWo cell line = assay: CellTiter-Glow cell viability, melanoma MeWo; conditions: Homo sapiens, 72 h, read-out: growth inhibition of MeWo cell line
# Description: as §1, §2, §3, §4
# U937 cell line = assay: CellTiter-Glow cell viability, leukemia U937; conditions: Homo sapiens, U-937, 72 h, read-out: growth inhibition of U937 cell line
# Description: as §1, §2, §3, §4
# SH-SY-5Y cells = assay: CellTiter-Glow cell viability, brain carcinoma SH-SY-5Y; conditions: Homo sapiens, SH-SY5Y, 72 h, read-out: % Inh @2 μM SH-SY-5Y
# Description: as §1, §2, §3, §4
SMILES,inhibition at 2 µM (A673 cells) [%],inhibition at 2 µM (A2058 cells) [%],inhibition at 2 µM (SK-Mel-5 cell line) [%],inhibition at 2 µM (NCI-H292 cells) [%],inhibition at 2 µM (NAWALMA cells) [%],inhibition at 2 µM (SK-N-SH cells) [%],inhibition at 2 µM (A375 cells) [%],inhibition at 2 µM (Daudi cells) [%],other results
COc1c(O)ccc2c(=O)c(O)c(-c3ccc(N(C)CCCCN(C)CCC4CCN(Cc5ccccc5)CC4)cc3)oc12 [SND437],99.6,97.3,99.7,71.6,80.8,96.4,69.5,59.4,inhibition at 2 µM (K562 cells): 65.3%; inhibition at 2 µM (DMS114 cells): 98%; inhibition at 2 µM (H118MG cells): 97.6%; inhibition at 2 µM (HCT116 cells): 83.7%; inhibition at 2 µM (MeWo cell line): 93.2%
COc1c(O)ccc2c(=O)c(O)c(-c3ccc(N(C)CCCCN(C)CCN4CCN(Cc5ccccc5)CC4)cc3)oc12 [SND438],55.6,72.1,61.1,51.9,65.3,53.5,55.5,50,% Inh @2 μM A2058 (A2058 cells; 72 h): 78.2%; % Inh @2 μM SK-Mel-5 (SK-Mel-5 cell line; 72 h): 50.7%; % Inh @2 μM A375 (A375 cells; 72 h): 60.8%
COc1c(O)ccc2c(=O)c(O)c(-c3ccc(N(C)CCCCN(C)CCCN4CCCCC4)cc3)oc12 [SND439],80.8,–,–,62.6,73.4,57.5,–,57.4,–
COc1c(O)ccc2c(=O)c(O)c(-c3ccc(N(C)CCCCNCCCNCCCCN)cc3)oc12 [SND445],61.8,–,–,–,–,–,–,–,–
COc1c(O)ccc2c(=O)c(O)c(-c3ccc(N(C)CCCCNCCCN)cc3)oc12 [SND446],–,–,56.5,–,75.5,–,–,82,inhibition at 2 µM (U937 cell line): 58%; inhibition at 2 µM (SH-SY-5Y cells): 55.8%
COc1c(-c2ccc(N(C)CCCCN(C)CCCN3CCCCC3)cc2)oc2c(OC)c(O)ccc2c1=O [SND459],63.5,–,–,–,–,–,–,–,–
